Each structure is given as a SMILES string. Structures can show the parent of a compound that is named as a salt. Where two headings read alike, the source gives them in different places.

This note sets out measurements from patent US6825350B2, “Sulfonamide and sulfamide substituted imidazoquinolines and methods for the treatment of periodontal disease using these and other immune response modifiers” (3M Innovative Properties Company, priority 1999, dated 2004).

Data set [1] relates to interferon (α). The data set can be described thus: Cytokine induction in human cells: interferon (α) by ELISA. Format: cell-based. The note with it: human PBMCs, 18 to 24 hours incubation, ELISA of culture supernatant, read-out: Lowest Effective Concentration (μM) Interferon.
Data set [2] concerns tumor necrosis factor (α). Kind of data set: Cytokine induction in human cells: tumor necrosis factor (α) by ELISA. Format: cell-based. The settings on record: Homo sapiens, PBMC, human PBMCs, 18 to 24 hours incubation, ELISA of culture supernatant; read-out: Lowest Effective Concentration (μM) Tumor Necrosis Factor. On the technique in general: ELISA stands for enzyme-linked immunosorbent assay.

As a reminder, the melting point is the temperature of the solid-liquid transition. In turn, `CCCCc1nc2c(N)nc3ccccc3c2n1CCCCNS(=O)(=O)c1ccc(N)cc1` (as salt: hydrochloride) had a melting point of 203.1 to 205 °C.

For the compound `CCCCc1nc2c(N)nc3ccccc3c2n1CCCCNS(=O)(=O)c1cccc(N)c1` (as salt: hydrochloride), the melting point is 110.2 °C (dec.).

In turn, `CCCCc1nc2c(N)nc3ccccc3c2n1CCCCNS(=O)(=O)c1cccc([N+](=O)[O-])c1` (as salt: hydrochloride) [Example 7, N^1-[4-(4-Amino-2-butyl-1H-imidazo[4,5-c]quinolin-1-yl)butyl]-3-nitro-1-benzenesulfonamide Hydrochloride] yielded a melting point of 176 to 178.2 °C. As to `CCCCc1nc2c(N)nc3ccccc3c2n1CCCCNS(=O)(=O)c1ccc([N+](=O)[O-])cc1` (as salt: hydrochloride) [Example 9, N^1-[4-(4-Amino-2-butyl-1H-imidazo[4,5-c]quinolin-1-yl)butyl]-4-nitro-1-benzenesulfonamide Hydrochloride], the melting point was 96 °C (dec.). `CCCCc1nc2c(N)nc3ccccc3c2n1CCCCNS(=O)(=O)c1cccc2c(N(C)C)cccc12` [Example 1, N^1-[4-(4-Amino-2-butyl-1H-imidazo[4,5-c]quinolin-1-yl)butyl]-5-(dimethylamino)-1-naphthalenesulfonamide] came in with a melting point of 223 to 224 °C. In data set [1] (Homo sapiens, PBMC), the minimal effective concentration was 0.12 µM. Moreover, in data set [2], the minimal effective concentration came to 3.33 µM.

`CN(C)c1cccc2c(S(=O)(=O)NCCCCn3cnc4c(N)nc5ccccc5c43)cccc12` [Example 2, N^1-[4-(4-Amino-1H-imidazo[4,5-c]quinolin-1-yl)butyl]-5-(dimethylamino)-1-naphthalenesulfonamide] registered a melting point of 200 to 201 °C. For the same compound, the minimal effective concentration in data set [1] (Homo sapiens, PBMC) is over 30 µM. Besides, in data set [2], the minimal effective concentration is over 30 µM. `CCCCc1nc2c(N)nc3ccccc3c2n1CCCCNS(=O)(=O)c1cccs1` [Example 3, N^2-[4-(4-Amino-2-butyl-1H-imidazo[4,5-c]quinolin-1-yl)butyl]-2-thiophenesulfonamide] gave a melting point of 137.5 to 141.5 °C. Besides, in data set [1], the minimal effective concentration was 0.01 µM. Compound `CCCCc1nc2c(N)nc3ccccc3c2n1CCCCNS(=O)(=O)Cc1ccccc1` [Example 4, N-[4-(4-Amino-2-butyl-1H-imidazo[4,5-c]quinolin-1-yl)butyl]phenylmethanesulfonainide] showed a melting point of 197 to 199.5 °C.

With `CCCCc1nc2c(N)nc3ccccc3c2n1CCCCNS(=O)(=O)c1ccccc1` [Example 5, N^1-[4-(4-Amino-2-butyl-1H-imidazo [4,5-c]quinolin-1-yl)butyl]-1-benzenesulfonamide], the melting point is 75.5 to 79 °C.

`CCCCc1nc2c(N)nc3ccccc3c2n1CCCCNS(=O)(=O)c1cccc2cnccc12` [Example 11, N^5-[4-(4-Amino-2-butyl-1H-imidazo[4,5-c]quinolin-1-yl)butyl]-5-isoquinolinesulfonamide]: the melting point was 96 °C (dec.). Moreover, in data set [1] (Homo sapiens, PBMC), the minimal effective concentration came out at 0.01 µM. In data set [2], the minimal effective concentration worked out at 1.11 µM. `COc1ccc(Cc2nc3c(N)nc4ccccc4c3n2CCCCNS(C)(=O)=O)cc1` [Example 12, N-[4-(4-Amino-2-(4-methoxybenzyl)-1H-imidazo[4,5-c]quinolin-1-yl]butyl]methanesulfonamide] returned a melting point of 78.1 to 79.5 °C. Still for that read-out and setting: the same measure for `COCCc1nc2c(N)nc3c(c2n1CCCCNS(=O)(=O)c1ccc(F)cc1)CCCC3` [Example 14, N^1-{4-[4-Amino-2-(2-methoxyethyl)-6,7,8,9-tetrahydro-1H-imidazo[4,5-c]quinolin-1-yl]butyl}-4-fluoro-1-benzenesulfonamide]: 191 to 193 °C; for `Nc1nc2ccccc2c2c1nc(-c1ccccc1)n2CCCCNS(=O)(=O)c1ccc(F)cc1` [Example 15, N-[4-(4-Amino-2-phenyl-1H-imidazo[4,5-c]quinolin-1-yl)butyl]-4-fluoro-1-benzenesulfonamide]: 214 to 216 °C. `CS(=O)(=O)NCCCCn1c(-c2ccccc2)nc2c(N)nc3ccccc3c21` [Example 16, N-[4-(4-Amino-2-phenyl-1H-imidazo[4,5-c]quinolin-1-yl)butyl]methanesulfonamide] yielded a melting point of 234 to 235 °C. `COCCc1nc2c(N)nc3c(c2n1CCCCNS(=O)(=O)Cc1ccccc1)CCCC3` [Example 211]: the minimal effective concentration is 0.0001 µM in data set [1] (Homo sapiens, PBMC) and 1 µM in data set [2]. The like results for `COCCc1nc2c(N)nc3c(c2n1CCCCNS(=O)(=O)C[C@@]12CCC(CC1=O)C2(C)C)CCCC3` [Example 212] were, in that order, 0.0001 µM and 0.01 µM. The like results for `COCCc1nc2c(N)nc3c(c2n1CCCCNS(=O)(=O)c1cccc2c(N(C)C)cccc12)CCCC3` [Example 213] were, in that order, 0.0001 µM and 1 µM. The like results for `COCCc1nc2c(N)nc3ccccc3c2n1CCCCN(C)S(=O)(=O)c1c(C)noc1C` [Example 215, N-[4-(4-Amino-2-(2-methoxyethyl)-1H-imidazo[4,5-c]quinolin-1-yl)butyl]-N-methyl-3,5-dimethylisooxazolo-4-sulfonamide Trifluoroacetate] were, in that order, 0.01 µM and 1 µM. Consider `CCOCc1nc2c(N)nc3ccccc3c2n1CCNS(=O)(=O)N(C)C` [Example 217], for which the minimal effective concentration was 1 µM in data set [1] (Homo sapiens, PBMC) and over 10 µM in data set [2]. The like results for `COCCc1nc2c(N)nc3ccccc3c2n1CCCCNS(=O)(=O)N(C)C` [Example 218] were, in that order, 0.0001 µM and 1 µM. Turning to `CCCCc1nc2c(N)nc3c(c2n1CCCCNS(=O)(=O)N(C)C)CCCC3` [Example 220], the minimal effective concentration in data set [1] (Homo sapiens, PBMC) was 0.0001 µM; in data set [2], 1 µM. The like results for `COCCc1nc2c(N)nc3c(c2n1CCCCNS(=O)(=O)N(C)C)CCCC3` [Example 221] were, in that order, 0.0001 µM and 1 µM. The like results for `COCCc1nc2c(N)nc3ccccc3c2n1CCCCNS(=O)(=O)Nc1ccccc1` [Example 224] were, in that order, 0.0001 µM and 10 µM. In the case of `COCCc1nc2c(N)nc3ccccc3c2n1CCCCNS(=O)(=O)N[C@H](C)c1ccccc1` [Example 226], the minimal effective concentration in data set [1] (Homo sapiens, PBMC) was 0.0001 µM; in data set [2], 0.1 µM. The like results for `CCOC(=O)C1CCN(S(=O)(=O)NCCCCn2c(CCOC)nc3c(N)nc4ccccc4c32)CC1` [Example 227] were, in that order, 0.001 µM and over 10 µM. The like results for `COCCc1nc2c(N)nc3ccccc3c2n1CCCCNS(=O)(=O)N1CCCC1` [Example 229] were, in that order, 0.0001 µM and 0.1 µM.

For the compound `COCCc1nc2c(N)nc3ccccc3c2n1CCCCNS(=O)(=O)NC(C)(C)C` [Example 230], the minimal effective concentration in data set [1] (Homo sapiens, PBMC) came to 0.0001 µM; in data set [2], 1 µM. The like results for `COCCc1nc2c(N)nc3ccccc3c2n1CCCCNS(=O)(=O)NCc1ccccc1` [Example 231] were, in that order, 0.0001 µM and 1 µM.
